# Reference: patent publication US5792799A, “Parenteral delivery of MAO A inhibitors” (Athena Neurosciences, Inc., priority 1996, dated 1998)
# “And” between values parts separate entries of the source, which are not always exact repeats. Identical values can stand only once.
# Experiments:
# MAO A [1] = assay: Comparison of parenteral (s.c.) and oral clorgyline on MAO A activity in striatum, gut and liver (Example 2); format: in vivo, mice; details: for MAO activity in the striatum, % of control values: mouse striatum; for extent of inhibition of intestinal MAO A activity: mouse intestine
# Procedure: (§1) MAO A and MAO B activity were measured as previously described (Yu and Hertz, J. Neurochem. 39:1492-5 (1982)), using 14C-phenylethylamine and 14C-5-hydroxytryptamine as selective substrates for MAO B and MAO A, respectively. Preliminary experiments were performed to ensure that enzyme activity was linear with respect to time and enzyme concentration, and that no more than 10-20% of the substrate was consumed during the incubation period (data not shown). Protein was measured by the method of Lowry et al. (J. Biol. Chem. 193:265-75 (1951)).
# MAO A [2] = assay: Effect of repeated s.c. or oral administration of clorgyline on MAO A activity in striatum, intestine and liver (Example 3); format: in vivo, mice; details: for MAO A inhibition in the liver: single or multiple
# Procedure: as §1
# MAO A activity was measured and compared in the striatum, intestine and liver.
# MAO A [3] = assay: MAO A activity in mouse striatum, liver and gut after subcutaneous clorgyline (Example 1); format: in vivo, C57BL/6 mice
# Procedure: All experiments were performed in strict accordance with the National Institutes of Health (NIH) Guide for the Care and Use of Laboratory Animals. C57BL/6 mice were housed under constant temperature (22° C.) and humidity conditions in a room illuminated for 12 hours per day, with food and water freely available. […] Animals were sacrificed five hours after drug administration. Brains were removed, and dissection of the striata was performed within two minutes of cervical dislocation. Tissues were collected in buffer (pH 7.2), sonicated for approximately 10 seconds, and stored at -70° C. Similar procedures were used to collect, homogenize and store samples from the liver and gut of the animals.
# as §1
# [4] = 0.6 mg/kg parenteral (s.c.), 5 h
# [5] = 0.6 mg/kg, s.c. or oral, mouse liver
# [6] = 0.6 mg/kg oral, single administration, 5 h
smiles,measurement,setting,value
C#CCN(C)CCCOc1ccc(Cl)cc1Cl [clorgyline],"MAO activity in the striatum, % of control values","MAO A [1]; 0.6 mg/kg oral gavage, 5 h",40 % of control
same,extent of inhibition of intestinal MAO A activity,"MAO A [1]; 0.6 mg/kg oral, 5 h",89%
same,extent of inhibition of intestinal MAO A activity,MAO A [1]; [4],55%
same,"MAO activity in the striatum, % of control values",MAO A [1]; [4],11 % of control
same,MAO A activity maintained in the gut,"MAO A [1]; 0.6 mg/kg parenteral injection, mouse gut",50%
same,"difference in extent of inhibition of MAO A activity in the liver, oral compared with subcutaneous","MAO A [1]; 0.6 mg/kg, 5 h, mouse liver",No significant difference
same,MAO A activity present in the liver after clorgyline exposure,MAO A [1]; [5],more than 50%
same,"intestine MAO A, % of control activity","MAO A [2]; 0.6 mg/kg oral, multiple administration (five, every 24 h), 5 h after last",~15 % of control
same,"intestine MAO A, % of control activity",MAO A [2]; [6],Approximately 20 % of control
same,striatal MAO A inhibition,MAO A [2]; [6],15%
same,MAO A inhibition in the liver,MAO A [2]; 0.6 mg/kg oral,≤ 25%
same,"striatal MAO A residual activity, % of control","MAO A [2]; 0.6 mg/kg per os, multiple treatments (five, every 24 h), 5 h after last",about 50 % of control
same,"striatal MAO A activity, % of the control value","MAO A [2]; 0.6 mg/kg s.c., five consecutive treatments every 24 h, 5 h after last",2 % of control
same,inhibition of intestinal MAO A,"MAO A [2]; 0.6 mg/kg s.c., injected once, 5 h",50%
same,striatal MAO A inhibition,"MAO A [2]; 0.6 mg/kg s.c., single administration, 5 h",approximately 90%
same,MAO A inhibition in the liver,MAO A [2]; 0.6 mg/kg subcutaneous,≤ 25%
same,"change in extent of MAO inhibition in the liver, single versus multiple treatments",MAO A [2]; [5],no significant changes
same,MAO A activity remaining in the gut,"MAO A [3]; 0.6 mg/kg s.c., 5 h after dose, mouse gut",50% and > 50%
same,MAO A activity remaining in the liver,"MAO A [3]; 0.6 mg/kg s.c., 5 h after dose, mouse liver",> 50%
same,inhibition of MAO A activity in the striatum,"MAO A [3]; 0.6 mg/kg s.c., 5 h after dose, mouse striatum",90% and > 90%
same,MAO A inhibition in the gut,"MAO A [3]; 0.6 mg/kg s.c., mouse gut",approximately 50%
same,MAO A inhibition in the liver,"MAO A [3]; 0.6 mg/kg s.c., mouse liver",approximately 50%
same,MAO A activity in the gut,"MAO A [3]; 0.8 mg/kg s.c., 5 h after dose, mouse gut",31%
same,MAO A activity in the liver,"MAO A [3]; 0.8 mg/kg s.c., 5 h after dose, mouse liver",about 50%
same,"MAO activity in the gut, % of control","MAO A [3]; 1 mg/kg s.c., 5 h after dose, mouse gut",27 % of control
same,"MAO activity in the liver, % of control","MAO A [3]; 1 mg/kg s.c., 5 h after dose, mouse liver",51 % of control
same,MAO A inhibition in the striatum,"MAO A [3]; 1 mg/kg s.c., 5 h after dose, mouse striatum",> 90%
